Experiments:
[1] = target: Homeodomain-interacting protein kinase 4 (Homo sapiens, UniProt Q8NE63); assay: Selectivity interaction (Enzymatic assay (Eurofins)) EUB0001049a HIPK4
[2] = target: Ephrin type-A receptor 5 (Homo sapiens) (UniProt P54756); assay: Selectivity interaction (KinomeScan (DiscoverX)) EUB0000229b EPHA5; conditions: at 10 µM
[3] = target: T1, Histone-lysine N-methyltransferase EHMT2 (Homo sapiens) (UniProt Q96KQ7); assay: Selectivity interaction (Transferase panel (protein, RNA, and DNA methyltransferases. and EP300 (acetyltransferase))) EUB0000270b EHMT2
T1 sequence (whole entry): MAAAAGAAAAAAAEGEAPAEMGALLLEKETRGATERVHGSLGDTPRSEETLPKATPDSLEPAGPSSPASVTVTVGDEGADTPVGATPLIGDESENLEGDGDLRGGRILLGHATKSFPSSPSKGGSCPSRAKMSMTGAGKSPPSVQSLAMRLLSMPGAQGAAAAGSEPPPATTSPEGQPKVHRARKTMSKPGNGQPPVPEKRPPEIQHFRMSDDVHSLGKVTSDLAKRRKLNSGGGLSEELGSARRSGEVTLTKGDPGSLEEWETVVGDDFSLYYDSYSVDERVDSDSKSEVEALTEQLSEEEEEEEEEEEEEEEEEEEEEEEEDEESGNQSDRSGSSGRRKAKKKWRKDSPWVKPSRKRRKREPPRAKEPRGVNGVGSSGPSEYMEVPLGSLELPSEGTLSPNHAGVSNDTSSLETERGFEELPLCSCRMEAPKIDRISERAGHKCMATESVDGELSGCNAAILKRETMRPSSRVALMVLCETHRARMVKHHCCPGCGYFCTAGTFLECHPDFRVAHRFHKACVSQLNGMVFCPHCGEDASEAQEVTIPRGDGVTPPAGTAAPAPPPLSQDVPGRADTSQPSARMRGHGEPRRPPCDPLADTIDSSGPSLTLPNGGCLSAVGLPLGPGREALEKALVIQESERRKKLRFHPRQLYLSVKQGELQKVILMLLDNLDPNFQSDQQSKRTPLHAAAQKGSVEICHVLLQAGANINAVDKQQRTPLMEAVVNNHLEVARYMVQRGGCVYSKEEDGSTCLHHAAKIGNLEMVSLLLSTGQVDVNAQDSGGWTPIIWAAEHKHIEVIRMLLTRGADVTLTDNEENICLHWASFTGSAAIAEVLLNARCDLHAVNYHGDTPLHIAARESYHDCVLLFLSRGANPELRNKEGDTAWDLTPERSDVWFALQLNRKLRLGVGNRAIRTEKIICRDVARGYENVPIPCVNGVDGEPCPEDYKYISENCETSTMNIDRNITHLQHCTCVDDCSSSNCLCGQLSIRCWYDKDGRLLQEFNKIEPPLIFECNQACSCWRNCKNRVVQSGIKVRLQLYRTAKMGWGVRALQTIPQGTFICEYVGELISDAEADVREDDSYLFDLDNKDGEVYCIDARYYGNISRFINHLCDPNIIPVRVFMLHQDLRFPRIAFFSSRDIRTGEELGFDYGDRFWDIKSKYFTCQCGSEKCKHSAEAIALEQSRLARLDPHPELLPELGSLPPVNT

[4] = target: Cyclin-dependent kinase 18 (Homo sapiens) (UniProt Q07002); assay: Selectivity interaction (ActivX KiNativ screen (kinase selectivity in THP-1 cell lysates)) EUB0000639a CDK18; type: subcellular; conditions: lysate, at 1 µM
Sequence of Cyclin-dependent kinase 18 (Homo sapiens) (Q07002 whole entry): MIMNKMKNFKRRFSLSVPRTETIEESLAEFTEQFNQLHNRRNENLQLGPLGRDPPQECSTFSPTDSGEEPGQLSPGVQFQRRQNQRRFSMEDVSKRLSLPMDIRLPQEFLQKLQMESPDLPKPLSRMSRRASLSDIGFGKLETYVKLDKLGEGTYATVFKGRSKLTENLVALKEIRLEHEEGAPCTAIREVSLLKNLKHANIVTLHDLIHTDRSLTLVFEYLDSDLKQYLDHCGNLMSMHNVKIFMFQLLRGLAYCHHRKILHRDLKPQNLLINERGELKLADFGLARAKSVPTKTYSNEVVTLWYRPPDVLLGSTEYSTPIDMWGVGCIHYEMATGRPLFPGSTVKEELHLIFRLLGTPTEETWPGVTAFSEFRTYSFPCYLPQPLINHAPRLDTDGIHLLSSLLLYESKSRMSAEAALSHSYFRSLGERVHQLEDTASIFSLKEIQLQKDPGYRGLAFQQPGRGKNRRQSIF

[5] = target: T2, Protein kinase C iota type (Homo sapiens) (UniProt P41743); assay: Selectivity interaction (ActivX KiNativ screen (kinase selectivity in THP-1 cell lysates)) EUB0000639a PRKCI; type: subcellular; conditions: lysate
T2 sequence (whole entry): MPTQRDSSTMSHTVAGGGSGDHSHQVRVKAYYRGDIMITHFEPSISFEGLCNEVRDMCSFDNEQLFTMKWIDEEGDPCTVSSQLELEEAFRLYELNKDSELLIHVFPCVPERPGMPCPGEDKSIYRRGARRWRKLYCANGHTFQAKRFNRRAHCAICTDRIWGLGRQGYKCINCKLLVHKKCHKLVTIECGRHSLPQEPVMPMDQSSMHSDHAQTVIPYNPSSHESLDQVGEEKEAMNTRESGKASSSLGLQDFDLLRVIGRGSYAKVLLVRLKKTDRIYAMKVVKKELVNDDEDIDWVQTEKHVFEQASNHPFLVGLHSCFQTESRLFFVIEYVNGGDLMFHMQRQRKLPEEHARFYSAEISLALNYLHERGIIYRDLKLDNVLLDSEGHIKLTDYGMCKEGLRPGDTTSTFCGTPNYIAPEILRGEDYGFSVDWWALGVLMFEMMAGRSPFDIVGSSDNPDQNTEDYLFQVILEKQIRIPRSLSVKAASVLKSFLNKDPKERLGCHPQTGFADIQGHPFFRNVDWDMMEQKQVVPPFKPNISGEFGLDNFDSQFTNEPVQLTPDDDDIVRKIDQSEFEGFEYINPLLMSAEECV

[6] = target: Serine/threonine-protein kinase MARK2 (Homo sapiens) (UniProt Q7KZI7); assay: Selectivity interaction (ActivX KiNativ screen (kinase selectivity in THP-1 cell lysates)) EUB0000639a MARK2; type: subcellular; conditions: lysate, at 0.04 µM
Sequence of Serine/threonine-protein kinase MARK2 (Homo sapiens) (Q7KZI7 whole entry): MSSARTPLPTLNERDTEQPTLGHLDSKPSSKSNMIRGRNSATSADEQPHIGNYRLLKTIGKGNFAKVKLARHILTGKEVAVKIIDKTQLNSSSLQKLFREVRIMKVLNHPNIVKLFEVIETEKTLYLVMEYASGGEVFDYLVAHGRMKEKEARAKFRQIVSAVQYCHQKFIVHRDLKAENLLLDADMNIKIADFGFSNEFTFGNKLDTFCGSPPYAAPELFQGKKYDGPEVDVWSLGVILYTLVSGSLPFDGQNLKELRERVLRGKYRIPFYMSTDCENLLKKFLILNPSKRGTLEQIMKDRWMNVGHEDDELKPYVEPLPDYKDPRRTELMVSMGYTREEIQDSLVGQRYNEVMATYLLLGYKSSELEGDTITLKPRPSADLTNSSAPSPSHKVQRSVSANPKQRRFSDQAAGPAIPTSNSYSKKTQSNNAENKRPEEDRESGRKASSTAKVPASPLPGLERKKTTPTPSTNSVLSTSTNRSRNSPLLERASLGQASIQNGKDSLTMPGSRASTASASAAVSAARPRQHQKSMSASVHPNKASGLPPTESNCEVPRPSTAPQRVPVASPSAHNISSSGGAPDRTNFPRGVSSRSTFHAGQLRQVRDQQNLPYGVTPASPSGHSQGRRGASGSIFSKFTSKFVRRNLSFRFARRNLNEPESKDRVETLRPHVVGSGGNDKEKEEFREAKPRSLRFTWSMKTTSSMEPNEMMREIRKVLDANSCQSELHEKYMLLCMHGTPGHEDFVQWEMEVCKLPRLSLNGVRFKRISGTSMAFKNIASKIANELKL

[7] = target: Maternal embryonic leucine zipper kinase (Homo sapiens) (UniProt Q14680); assay: Selectivity interaction (KinomeScan (DiscoverX)) EUB0000045b MELK
Sequence of Maternal embryonic leucine zipper kinase (Homo sapiens) (Q14680 whole entry, looked up): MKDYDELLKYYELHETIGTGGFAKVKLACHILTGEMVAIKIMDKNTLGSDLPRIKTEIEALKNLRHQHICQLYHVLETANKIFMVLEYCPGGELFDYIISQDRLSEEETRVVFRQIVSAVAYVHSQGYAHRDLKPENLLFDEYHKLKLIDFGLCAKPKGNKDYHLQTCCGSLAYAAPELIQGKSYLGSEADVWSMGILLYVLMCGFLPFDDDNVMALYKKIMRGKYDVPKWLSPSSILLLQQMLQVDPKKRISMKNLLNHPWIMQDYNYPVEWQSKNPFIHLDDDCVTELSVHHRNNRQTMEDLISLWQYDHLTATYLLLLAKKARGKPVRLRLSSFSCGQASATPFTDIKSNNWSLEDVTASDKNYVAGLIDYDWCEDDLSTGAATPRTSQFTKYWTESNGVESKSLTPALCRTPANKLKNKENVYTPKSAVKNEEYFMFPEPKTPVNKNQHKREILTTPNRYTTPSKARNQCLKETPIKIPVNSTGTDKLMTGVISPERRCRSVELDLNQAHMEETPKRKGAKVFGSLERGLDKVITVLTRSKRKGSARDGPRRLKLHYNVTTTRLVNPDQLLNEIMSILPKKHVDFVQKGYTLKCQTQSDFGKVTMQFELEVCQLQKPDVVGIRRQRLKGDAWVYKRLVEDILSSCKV

[8] = target: T3, Serine/threonine-protein kinase Sgk3 (Homo sapiens) (UniProt Q96BR1); assay: Selectivity interaction (KinomeScan (DiscoverX)) EUB0000618a SGK3; conditions: at 10 µM
T3 sequence (whole entry): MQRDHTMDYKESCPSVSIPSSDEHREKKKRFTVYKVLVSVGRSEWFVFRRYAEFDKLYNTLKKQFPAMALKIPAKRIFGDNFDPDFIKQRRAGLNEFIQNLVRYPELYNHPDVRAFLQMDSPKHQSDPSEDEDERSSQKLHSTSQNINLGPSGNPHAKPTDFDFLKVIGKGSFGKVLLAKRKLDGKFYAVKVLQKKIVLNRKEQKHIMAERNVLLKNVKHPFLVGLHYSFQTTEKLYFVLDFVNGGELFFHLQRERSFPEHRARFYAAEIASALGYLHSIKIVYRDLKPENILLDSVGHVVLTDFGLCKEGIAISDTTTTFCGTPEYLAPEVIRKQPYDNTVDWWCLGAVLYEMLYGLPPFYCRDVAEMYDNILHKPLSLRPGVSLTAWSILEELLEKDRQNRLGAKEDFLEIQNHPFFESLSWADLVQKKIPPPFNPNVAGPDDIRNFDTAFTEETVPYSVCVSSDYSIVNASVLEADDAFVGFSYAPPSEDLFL

[9] = target: Serine/threonine-protein kinase N2 (Homo sapiens, UniProt Q16513); assay: Selectivity interaction (KinomeScan (DiscoverX)) EUB0000607a PKN2; conditions: at 10 µM
Sequence of Serine/threonine-protein kinase N2 (Q16513 whole entry, looked up): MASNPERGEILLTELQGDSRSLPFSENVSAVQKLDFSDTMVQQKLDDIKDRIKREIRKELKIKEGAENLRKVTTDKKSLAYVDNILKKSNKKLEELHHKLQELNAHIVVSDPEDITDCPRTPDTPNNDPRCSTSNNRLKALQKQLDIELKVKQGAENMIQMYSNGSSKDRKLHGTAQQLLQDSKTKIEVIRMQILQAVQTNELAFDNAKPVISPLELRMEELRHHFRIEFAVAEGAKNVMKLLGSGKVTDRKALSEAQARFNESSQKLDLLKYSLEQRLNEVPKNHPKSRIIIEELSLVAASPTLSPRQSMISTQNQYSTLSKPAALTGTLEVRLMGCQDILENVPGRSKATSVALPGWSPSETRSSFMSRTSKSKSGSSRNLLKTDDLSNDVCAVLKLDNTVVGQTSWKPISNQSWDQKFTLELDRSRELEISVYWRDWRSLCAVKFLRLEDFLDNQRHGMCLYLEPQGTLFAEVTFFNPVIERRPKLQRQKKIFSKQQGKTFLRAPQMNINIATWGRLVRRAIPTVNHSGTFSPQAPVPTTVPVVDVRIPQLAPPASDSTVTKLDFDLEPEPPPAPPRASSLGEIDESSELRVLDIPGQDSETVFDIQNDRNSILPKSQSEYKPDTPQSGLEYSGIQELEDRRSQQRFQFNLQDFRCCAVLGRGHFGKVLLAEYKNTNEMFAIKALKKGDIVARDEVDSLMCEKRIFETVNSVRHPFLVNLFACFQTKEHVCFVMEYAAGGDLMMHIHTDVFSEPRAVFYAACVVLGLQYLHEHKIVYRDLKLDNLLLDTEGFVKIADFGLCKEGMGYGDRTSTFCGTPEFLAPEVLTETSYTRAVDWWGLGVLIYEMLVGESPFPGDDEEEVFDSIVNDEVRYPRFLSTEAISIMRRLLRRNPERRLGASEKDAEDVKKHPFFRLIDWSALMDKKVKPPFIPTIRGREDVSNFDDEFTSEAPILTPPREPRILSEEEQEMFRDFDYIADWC

Sequence of Ephrin type-A receptor 5 (Homo sapiens) (P54756 whole entry): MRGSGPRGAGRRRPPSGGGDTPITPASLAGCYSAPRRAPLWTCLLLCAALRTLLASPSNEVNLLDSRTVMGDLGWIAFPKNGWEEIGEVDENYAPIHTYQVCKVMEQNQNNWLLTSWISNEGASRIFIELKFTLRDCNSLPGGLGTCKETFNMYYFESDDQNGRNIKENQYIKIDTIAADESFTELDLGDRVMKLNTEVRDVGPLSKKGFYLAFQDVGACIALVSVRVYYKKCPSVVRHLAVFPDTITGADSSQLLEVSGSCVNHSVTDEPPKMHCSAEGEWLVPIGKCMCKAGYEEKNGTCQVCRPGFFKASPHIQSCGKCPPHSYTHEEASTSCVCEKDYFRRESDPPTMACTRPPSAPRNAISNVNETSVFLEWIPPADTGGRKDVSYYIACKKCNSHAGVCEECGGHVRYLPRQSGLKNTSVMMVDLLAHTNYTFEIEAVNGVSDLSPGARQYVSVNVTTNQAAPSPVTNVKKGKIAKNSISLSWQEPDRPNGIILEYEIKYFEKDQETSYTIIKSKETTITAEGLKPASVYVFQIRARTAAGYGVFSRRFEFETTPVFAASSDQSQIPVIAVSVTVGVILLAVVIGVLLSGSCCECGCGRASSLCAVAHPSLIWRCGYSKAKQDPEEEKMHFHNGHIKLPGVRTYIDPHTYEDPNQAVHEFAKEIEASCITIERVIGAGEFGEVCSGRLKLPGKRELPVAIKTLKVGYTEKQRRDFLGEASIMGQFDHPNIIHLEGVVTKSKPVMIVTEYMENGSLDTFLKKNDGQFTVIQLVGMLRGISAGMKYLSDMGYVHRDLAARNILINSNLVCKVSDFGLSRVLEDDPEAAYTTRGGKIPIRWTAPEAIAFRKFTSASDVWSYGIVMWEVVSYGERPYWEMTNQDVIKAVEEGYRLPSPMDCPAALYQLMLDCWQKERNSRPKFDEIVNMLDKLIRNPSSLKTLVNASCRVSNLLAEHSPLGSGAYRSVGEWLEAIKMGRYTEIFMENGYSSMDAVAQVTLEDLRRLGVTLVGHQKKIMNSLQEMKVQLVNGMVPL
Sequence of Homeodomain-interacting protein kinase 4 (Q8NE63 whole entry): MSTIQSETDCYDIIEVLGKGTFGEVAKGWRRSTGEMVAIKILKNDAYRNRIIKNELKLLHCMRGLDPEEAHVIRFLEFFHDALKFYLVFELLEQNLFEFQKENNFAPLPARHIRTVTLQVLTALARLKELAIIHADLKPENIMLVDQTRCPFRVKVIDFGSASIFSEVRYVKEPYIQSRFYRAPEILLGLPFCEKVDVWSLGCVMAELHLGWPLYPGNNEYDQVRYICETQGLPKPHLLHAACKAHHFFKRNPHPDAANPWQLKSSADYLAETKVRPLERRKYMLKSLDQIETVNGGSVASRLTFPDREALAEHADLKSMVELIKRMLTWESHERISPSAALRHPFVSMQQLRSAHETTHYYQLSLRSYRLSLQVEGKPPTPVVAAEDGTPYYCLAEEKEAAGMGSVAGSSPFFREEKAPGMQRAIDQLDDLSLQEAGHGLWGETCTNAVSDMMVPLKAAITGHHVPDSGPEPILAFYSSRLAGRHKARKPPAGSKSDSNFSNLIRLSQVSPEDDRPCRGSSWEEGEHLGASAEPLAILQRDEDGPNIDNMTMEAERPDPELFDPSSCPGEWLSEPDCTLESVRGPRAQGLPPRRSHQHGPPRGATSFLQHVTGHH

COc1cc(Nc2nc(C)cc(-c3cnn4nc(OC)ccc34)n2)cc(C(F)(F)F)c1
IC50 [1]: > 10 µM

COc1cc(N(C)c2ccnc3ccc(C(F)(F)F)cc23)cc(OC)c1OC
% binding [2]: 97%

Cc1cc(CN)cc(C)c1-c1ncn(C)c1-c1cncn1C
% activity ([3]; at 1 µM): > 90%
% activity ([3]; at 10 µM): > 80%

CC[C@@H]1[C@H](F)C(=O)N[C@@H]1COc1nccc2cc(C(N)=O)c(OC)cc12 [ZIMLOVISERTIB]
% of inhibition [4]: 3.9%
% of inhibition ([5]; at 0.01 µM): 8.5%
% of inhibition ([5]; at 0.04 µM): -2.3%
% of inhibition ([5]; at 0.2 µM): -7.6%
% of inhibition ([5]; at 1 µM): 6.9%
% of inhibition ([5]; at 5 µM): -26.2%
% of inhibition [6]: 0.7%

C=CC(=O)Nc1cc(-n2c(=O)ccc3cnc4ccc(-c5ccc(NS(C)(=O)=O)cc5)cc4c32)ccc1C
% of control ([7]; at 1 µM): 100%
% of control ([7]; at 10 µM): 75%

O[C@H]1CC[C@H](Nc2ncc3nc(Nc4c(F)cc(F)cc4F)n([C@H]4CCOC4)c3n2)CC1
% of control [8]: 100%

CNC(=O)Nc1ccc(-c2nc(N3CC4CCC(C3)O4)c3cnn(C4CCC5(CC4)OCCO5)c3n2)cc1
% of control [9]: 83%

— ChEMBL document CHEMBL5465560, “Selectivity Literature for EUbOPEN Chemogenomic Library” (2024)
